In ChEMBL document CHEMBL6121034, “Expanding the Chemical Space of Reverse Fosmidomycin Analogs” (ACS Med Chem Lett, 2025):
In brackets after ≈: the same amount, converted by molar mass.

What was measured:
[1] = target: T1, 1-deoxy-D-xylulose 5-phosphate reductoisomerase (Mycobacterium tuberculosis, UniProt P9WNS1); experiment: Inhibition of recombinant Mycobacterium tuberculosis DXR extracted from Escherichia coli M15 using DXP as substrate by NADPH consumption based photometric assay
T1 sequence (P9WNS1 whole entry): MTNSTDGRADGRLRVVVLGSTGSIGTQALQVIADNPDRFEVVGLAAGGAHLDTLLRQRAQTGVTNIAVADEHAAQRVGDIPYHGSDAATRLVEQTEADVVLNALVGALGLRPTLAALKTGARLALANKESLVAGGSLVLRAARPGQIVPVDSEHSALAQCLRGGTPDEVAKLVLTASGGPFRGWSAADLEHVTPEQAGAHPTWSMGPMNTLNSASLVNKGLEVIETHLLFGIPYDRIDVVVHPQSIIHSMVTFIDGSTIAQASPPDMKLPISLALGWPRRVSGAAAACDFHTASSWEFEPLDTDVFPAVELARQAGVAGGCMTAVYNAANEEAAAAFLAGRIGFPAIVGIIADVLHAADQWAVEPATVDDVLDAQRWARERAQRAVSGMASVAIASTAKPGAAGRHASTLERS

Plasmodium falciparum [2] = experiment: Antiparasitic activity against CQ-sensitive Plasmodium falciparum 3D7 at asexual stage infected in O Rh+ erythrocytes by ELISA; format: functional, organism-based; details: 3D7, Erythrocyte
[3] = target: T2, 1-deoxy-D-xylulose 5-phosphate reductoisomerase (Escherichia coli K-12, UniProt P45568); experiment: Inhibition of recombinant Escherichia coli DXR extracted from Escherichia coli M15 using DXP as substrate by NADPH consumption based photometric assay
T2 sequence (P45568 whole entry): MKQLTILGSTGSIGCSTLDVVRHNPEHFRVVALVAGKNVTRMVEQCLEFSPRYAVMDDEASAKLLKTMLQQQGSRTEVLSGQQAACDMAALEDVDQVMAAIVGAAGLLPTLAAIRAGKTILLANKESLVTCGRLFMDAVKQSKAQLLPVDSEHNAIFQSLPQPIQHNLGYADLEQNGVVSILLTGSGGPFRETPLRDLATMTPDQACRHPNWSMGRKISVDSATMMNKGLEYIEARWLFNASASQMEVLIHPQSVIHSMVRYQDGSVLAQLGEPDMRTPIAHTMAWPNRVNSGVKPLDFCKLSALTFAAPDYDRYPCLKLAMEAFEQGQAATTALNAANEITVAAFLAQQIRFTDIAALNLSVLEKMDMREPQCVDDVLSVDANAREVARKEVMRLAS

[4] = Selectivity ratio of IC50 for antiparasitic activity against CQ-sensitive Plasmodium falciparum 3D7 at asexual stage infected in O Rh+ erythrocytes to IC50 for inhibition of Plasmodium falciparum DXR extracted from Escherichia coli
[5] = Selectivity ratio of IC50 for antiparasitic activity against multidrug-resistant Plasmodium falciparum Dd2 at asexual stage infected in O Rh+ erythrocytes to IC50 for inhibition of Plasmodium falciparum DXR extracted from Escherichia coli
[6] = target: T3, 1-deoxy-D-xylulose 5-phosphate reductoisomerase, apicoplastic (Plasmodium falciparum (isolate 3D7), UniProt Q8IKG4); experiment: Inhibition of Plasmodium falciparum DXR extracted from Escherichia coli using DXP as substrate by NADPH consumption based photometric assay
T3 sequence (Q8IKG4 whole entry): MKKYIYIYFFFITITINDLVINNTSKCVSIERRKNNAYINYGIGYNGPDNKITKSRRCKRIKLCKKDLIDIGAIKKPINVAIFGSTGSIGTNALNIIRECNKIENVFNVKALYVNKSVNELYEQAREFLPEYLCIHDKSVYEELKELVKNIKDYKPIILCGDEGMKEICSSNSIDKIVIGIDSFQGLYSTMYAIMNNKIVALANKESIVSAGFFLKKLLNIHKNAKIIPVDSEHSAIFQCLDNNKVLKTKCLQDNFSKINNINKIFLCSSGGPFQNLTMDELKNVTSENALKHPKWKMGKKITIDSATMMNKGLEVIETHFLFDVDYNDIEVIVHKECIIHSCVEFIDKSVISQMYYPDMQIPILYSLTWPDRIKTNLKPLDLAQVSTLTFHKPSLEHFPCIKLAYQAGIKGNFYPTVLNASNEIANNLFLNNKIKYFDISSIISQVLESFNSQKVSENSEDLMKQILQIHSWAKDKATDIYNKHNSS

[7] = tested on: Mycobacterium tuberculosis; experiment: Antibacterial activity against wild-type Mycobacterium tuberculosis H37Rv incubated for 5 days by CLSI based broth microdilution assay; format: functional; details: 120 h, time 5 day
Escherichia coli [8] = experiment: Antibacterial activity against Escherichia coli ATCC 25922 […] by CLSI based broth microdilution assay; format: functional
Plasmodium falciparum [9] = experiment: Antiparasitic activity against multidrug-resistant Plasmodium falciparum Dd2 at asexual stage infected in O Rh+ erythrocytes by ELISA method; format: functional, organism-based; details: Dd2, Erythrocyte
Escherichia coli [10] = experiment: Antibacterial activity against Escherichia coli incubated for 20 hrs; format: functional

SMILES	IC50 [1] [µM]	IC50 (Plasmodium falciparum [2]) [µM]	IC50 [3] [µM]	Ratio IC50 [4]	Ratio IC50 [5]	IC50 [6] [µM]	MIC [7] [µM]	MIC (Escherichia coli [8]) [µM]	IC50 (Plasmodium falciparum [9]) [µM]	MIC (Escherichia coli [10]) [µM]
CN(O)C(=O)CSC(c1cccc(OCCCCCCN2C(=O)c3ccccc3C2=O)c1)P(=O)(O)O (racemic)	1.7	> 12	0.068	>120	100	0.097	> 100	> 100	9.8	
CN(O)C(=O)CSC(c1ccc(OCCCCCCN2C(=O)c3ccccc3C2=O)cc1)P(=O)(O)O (racemic)	0.16	2.6	0.013	120	90	0.021	> 100	> 100	1.9	
CCCCCCOc1ccc(C(SCC(=O)N(C)O)P(=O)(O)O)cc1 (racemic)	0.092	8	0.017	170	120	0.048	> 100	> 100	5.8	
O=CN(O)CCCP(=O)(O)O [FOSMIDOMYCIN]										6.25 (≈ 1.14 µg/mL)
